Usually IC50 stands for the concentration that inhibits the measured activity by half.

For test [1], the system named is p-IKKα levels in L363 (NIK translocated multiple myeloma) cells. In words: Effect of compounds on p-IKKα levels in L363 cells (AlphaLISA SureFire Ultra). The format is cell-based. The following applies: Homo sapiens, L-363; L363 cells, BAFF stimulated, MG132, 6 h; average of values; read-out: Assay 2 IC50. Put shortly:
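Phospho-IKKα (Ser 176/180) was quantified by AlphaLISA in lysed L363 cells after 6 h compound exposure (0.3% DMSO, 11 points, 1:3) alongside 250 ng/ml BAFF and 10 uM MG132, following overnight BAFF priming in low-serum DMEM. Duplicate curves were scaled between BAFF/DMSO/MG132 and unstimulated DMSO wells, then fitted sigmoidally for IC50.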
In general terms: Bead proximity is the source of the signal in Alpha formats.

The target in test [2] is Recombinant Human NF-Kappab-Inducing Kinase (NIK/MAP3K14) (Homo sapiens, UniProt Q99558). Put plainly: Inhibition of auto-phosphorylation of recombinant human NIK/MAP3K14 (AlphaScreen). The following applies: NIK/MAP3K14 auto-phosphorylation, 5 microM ATP, 1 nM enzyme, 2 h at 25° C.; average of values; read-out: Assay 1 IC50. It counts as biochemical. Put shortly:
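AlphaScreen read-out used anti-phospho-IKK Ser176/180 antibody after 2 h, 25 °C incubation of compound, 1 nM GST-NIK and 5 µM ATP (final DMSO 0.7%). Percent inhibition referenced to high (enzyme) and low (no enzyme, no ATP) controls; sigmoidal curve fitting gave IC50.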

Chain of Recombinant Human NF-Kappab-Inducing Kinase (NIK/MAP3K14) (Q99558 whole entry): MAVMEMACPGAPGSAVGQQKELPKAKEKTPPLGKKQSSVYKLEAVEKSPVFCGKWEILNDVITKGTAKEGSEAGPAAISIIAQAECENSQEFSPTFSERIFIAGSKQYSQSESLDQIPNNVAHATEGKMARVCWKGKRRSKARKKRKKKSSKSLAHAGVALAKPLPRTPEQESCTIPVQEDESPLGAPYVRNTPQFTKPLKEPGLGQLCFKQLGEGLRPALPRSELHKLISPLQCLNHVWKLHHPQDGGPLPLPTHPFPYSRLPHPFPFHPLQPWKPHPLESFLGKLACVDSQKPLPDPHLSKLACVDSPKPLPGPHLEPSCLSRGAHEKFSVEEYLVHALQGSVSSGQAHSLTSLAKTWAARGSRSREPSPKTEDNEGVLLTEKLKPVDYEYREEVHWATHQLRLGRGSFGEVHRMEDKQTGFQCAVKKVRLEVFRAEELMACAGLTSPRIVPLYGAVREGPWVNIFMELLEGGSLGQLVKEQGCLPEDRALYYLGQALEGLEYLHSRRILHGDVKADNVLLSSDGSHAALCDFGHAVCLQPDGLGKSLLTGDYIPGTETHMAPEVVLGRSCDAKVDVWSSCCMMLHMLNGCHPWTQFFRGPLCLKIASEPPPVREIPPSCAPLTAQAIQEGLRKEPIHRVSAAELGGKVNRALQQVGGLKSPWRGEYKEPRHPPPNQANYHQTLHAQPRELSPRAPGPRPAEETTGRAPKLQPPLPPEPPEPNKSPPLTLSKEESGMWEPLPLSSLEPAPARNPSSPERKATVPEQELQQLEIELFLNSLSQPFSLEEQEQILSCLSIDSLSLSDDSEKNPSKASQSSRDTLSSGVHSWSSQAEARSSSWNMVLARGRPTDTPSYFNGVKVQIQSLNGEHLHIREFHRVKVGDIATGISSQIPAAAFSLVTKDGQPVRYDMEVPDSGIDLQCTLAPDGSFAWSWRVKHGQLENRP

For `CN1CC[C@@](O)(c2cc(-c3cccc(-c4cc(C5CC5)c(N)c(C(N)=O)n4)c3)on2)C1=O` [Example 108, (R)-3-Amino-4-cyclopropyl-6-(3-(3-(3-hydroxy-1-methyl-2-oxopyrrolidin-3-yl)isoxazol-5-yl)phenyl)picolinamide], the half-maximal inhibitory concentration (IC50) in test [1] and in test [2] was less than 100 nM in each case.
As for `CN1CC[C@@](O)(c2cc(-c3cccc(-c4nc(C(N)=O)n5ccncc45)c3)no2)C1=O` [Example 109, (R)-1-(3-(5-(3-Hydroxy-1-methyl-2-oxopyrrolidin-3-yl)isoxazol-3-yl)phenyl)imidazo[1,5-a]pyrazine-3-carboxamide], the results for the IC50 in test [1] and in test [2] were 100 to 500 nM and less than 100 nM, respectively.
On the same counts, the results for `CN1CC[C@@](O)(c2cc(-c3cccc(-c4cnc(N)c(C(N)=O)n4)c3)no2)C1=O` [Example 110, (R)-3-Amino-6-(3-(5-(3-hydroxy-1-methyl-2-oxopyrrolidin-3-yl)isoxazol-3-yl)phenyl)pyrazine-2-carboxamide] are less than 100 nM and less than 100 nM.
On the same counts, the results for `CN1CC[C@@](O)(c2cc(-c3cccc(-c4ncc(NC5CC5)c(C(N)=O)n4)c3)no2)C1=O` [Example 111, (R)-5-(Cyclopropylamino)-2-(3-(5-(3-hydroxy-1-methyl-2-oxopyrrolidin-3-yl)isoxazol-3-yl)phenyl)pyrimidine-4-carboxamide] are less than 100 nM and less than 100 nM.
As to `CN1CC[C@@](O)(c2cc(-c3cccc(-n4nc(C(N)=O)c5cc(C6CC6)ccc54)c3)no2)C1=O` [Example 112, (R)-5-Cyclopropyl-1-(3-(5-(3-hydroxy-1-methyl-2-oxopyrrolidin-3-yl)isoxazol-3-yl)phenyl)-1H-indazole-3-carboxamide], the 50% inhibitory concentration (IC50) in test [1] was 100 to 500 nM; in test [2], less than 100 nM.
On the same counts, the results for `COc1cc(-c2cc(-c3cc([C@]4(O)CCN(C)C4=O)on3)c(F)cc2F)nc2c(N)ncnc12` [Example 113, (R)-3-(3-(5-(4-Amino-8-methoxypyrido[3,2-d]pyrimidin-6-yl)-2,4-difluorophenyl)isoxazol-5-yl)-3-hydroxy-1-methylpyrrolidin-2-one] are more than 501 nM and less than 100 nM.
As to `CN1CC[C@@](O)(c2cc(-c3cccc(-c4cn(C)c(C(N)=O)n4)c3)no2)C1=O` [Example 114, (R)-4-(3-(5-(3-Hydroxy-1-methyl-2-oxopyrrolidin-3-yl)isoxazol-3-yl)phenyl)-1-methyl-1H-imidazole-2-carboxamide], the concentration for half-maximal inhibition (IC50) was more than 501 nM in test [1] and less than 100 nM in test [2].
Taken in the same sequence, the figures for `COc1cc(-c2cc(-c3cc([C@]4(O)C[C@@H](C(F)(F)F)N(C)C4=O)on3)c(F)cc2F)nc2c(N)ncnc12` [Example 115, (3R,5S)-3-(3-(5-(4-Amino-8-methoxypyrido[3,2-d]pyrimidin-6-yl)-2,4-difluorophenyl)isoxazol-5-yl)-3-hydroxy-1-methyl-5-(trifluoromethyl)pyrrolidin-2-one] were more than 501 nM and more than 501 nM.
As to `COc1cc(-c2cc(-c3cc([C@]4(O)C[C@@H](C(F)(F)F)N(C)C4=O)on3)ccc2F)nc2c(N)ncnc12` [Example 116, (3R,5S)-3-(3-(3-(4-amino-8-methoxypyrido[3,2-d]pyrimidin-6-yl)-4-fluorophenyl)isoxazol-5-yl)-3-hydroxy-1-methyl-5-(trifluoromethyl)pyrrolidin-2-one], the 50% inhibitory concentration (IC50) is more than 501 nM in test [1] and less than 100 nM in test [2].
With `CN1CC[C@@](O)(c2cc(-c3cccc(-c4cc(C5CC5)cc(C(N)=O)n4)c3)no2)C1=O` [Example 117, (R)-4-Cyclopropyl-6-(3-(5-(3-hydroxy-1-methyl-2-oxopyrrolidin-3-yl)isoxazol-3-yl)phenyl)picolinamide], the values for the IC50 in test [1] and in test [2] were 100 to 500 nM and less than 100 nM, respectively.

The record behind these values is patent US20250282785A1, “PYRROLIDINONE DERIVATIVES AS INHIBITORS OF NF KAPPA B INDUCING KINASE” (priority 2022, published 2025).
